Results as given in patent publication US11179363B2, “Non-steroidal selective glucocorticoid receptor agonistic modulators (SEGRAMs) and uses thereof” (ASSOCIATION POUR LA RECHERCHE À L'IGBMC (ARI), priority 2017, dated 2021).

Key:
[1] = test system: dorsal skin of Balb/C mice; assay: Skin epidermis atrophy after 8-day topical treatment of dorsal skin; type: in vivo; settings: eight-day topical treatment
From the text: To investigate whether, similarly to Dex, a topical administration of CpdX could result in a skin atrophy, Balb/C mice were shaved on the dorsal skin. Ethanol (vehicle), Dex, CpdX or either one of its two enantiomers CpdX(eA) or CpdX(eB), as well as the deuterated form CpdX-D3 or either one of its two enantiomers CpdX-D3(eA) or CpdX-D3(eB), were topically applied onto the dorsal skin for 8 days.
Upon completion of the treatments, RNA transcripts were extracted from dorsal skin samples and the transcripts of Kindlin-1 and REDD1 genes were analyzed by q-RT-PCR. Histological and morphometric analyses of the dorsal skin were also performed.

[2] = test system: OVA-induced allergic conjunctivitis; assay: Ovalbumin (OVA)-induced allergic conjunctivitis; type: in vivo, Balb/C mice; settings: 0.1% instillation D22 to D24, 20 minutes after the last OVA challenge
Description: To investigate the anti-inflammatory effect of CpdX or CpdX-D3 on an allergic conjunctivitis, Balb/C mice were intraperitoneally sensitized with 50 μg OVA with alum on both days D1 and D8, and then challenged from D15 to D21 with 250 μg OVA in 5 μL of sterilized vehicle (0.9% NaCl), which were directly instilled onto the conjunctival sac. From D22 to D24, mice were divided into several groups, and received instillations with either OVA alone, OVA together with 0.1% of either Dex, CpdX, CpdX(eA), CpdX(eB), CpdX-D3, CpdX-D3(eA) or CpdX-D3(eB).
The clinical appearance of mouse eyes was evaluated 20 minutes after the last instillation on D24. Clinical signs (conjunctival hyperemia, lid edema and tearing) were scored to evaluate the occurrence and severity of conjunctivitis as described by Gimenes et al. (2015. Experimental Eye Research 134:24-32). Parameters were graded on a scale ranging from 0 to 3, (0=absence, 1=mild, 2=moderate, and 3=severe symptoms), each animal receiving a total clinical score ranging from 0 to 9. The data were expressed as mean±SEM with at least four mice per treatment.

liver = assay: Fatty liver after three-month treatment (red oil staining, q-RT-PCR, plasma cholesterol and bile acids); type: in vivo, B6 male mice; settings: s.c. 1 mg/kg daily, three months
Description: B6 male mice (8-week-old) were daily subjected for three months to a subcutaneous injection of either vehicle (NaCl 0.9%), Dex, CpdX, CpdX(eA), CpdX(eB), CpdX-D3, CpdX-D3(eA) or CpdX-D3(eB) (1 mg/kg body weight, diluted in vehicle). Following this treatment, blood was collected at 10 a.m. by retro-orbital puncture in lithium-heparin coated vials. The plasmatic levels of total cholesterol and bile acids were determined.
Liver samples were harvested. […] RNA transcripts were extracted from liver samples and the transcripts of fatty acid synthase (FASN) and Stearoyl-CoA desaturase 1 (SCD1) genes were analyzed by q-RT-PCR.

[3] = test system: TPA-induced irritant contact dermatitis-like inflammation; assay: TPA-induced irritant contact dermatitis-like inflammation of mouse ears; type: in vivo, Balb/C mouse; settings: for TPA-induced ear skin inflammation, histological analysis: H&E, vs control; for TPA-induced ear skin inflammation, histological analysis / expression of TSLP in TPA-treated mouse epidermis (immunochemistry): data not shown; for expression of TSLP in TPA-treated mouse epidermis (immunochemistry): TSLP-specific antibody; for TPA-induced transcription of pro-inflammatory genes (CCL4, COX2, MMP13, IL-1β, IL-6, TNF-α, TSLP, IL-22, IL-23): ear extracts, q-RT-PCR, D10; for TPA-induced skin inflammation: topical 1 nmole/cm^2, 5 days co-treatment with TPA
Description: Balb/C mouse ears were topically treated with TPA to induce an “irritant contact dermatitis-like inflammation”. Mice were treated for 4 days with TPA, then for 5 extra days (until D9) with either vehicle, TPA alone, TPA and Dex, TPA and CpdX or TPA and CpdX-D3. At D10, RNA transcripts were extracted from mouse ear skin samples and the transcripts of CCL4, COX2, MMP13, IL-1β, IL-6, TNF-α, TSLP, IL-22 and IL-23 were analyzed by q-RT-PCR. Ear skin was harvested, and histological (with H&E staining) and immunohistochemical (with anti-TSLP antibodies) analyses were carried out.

[4] = test system: MC 903-induced atopic dermatitis (AD)-like inflammation; assay: Calcipotriol (MC 903)-induced atopic dermatitis-like inflammation of mouse ears; type: in vivo, Balb/C mouse; settings: for MC 903-induced ear skin inflammation, histological analysis: H&E, vs control; for expression of the TSLP lymphokine in MC 903-treated mouse epidermis (immunohistochemistry): data not shown; for MC 903-induced transcription of pro-inflammatory genes (MMP13, COX2, IL-1β, IL-6, IL-10, IL-13 and TSLP): ear extracts, q-RT-PCR, D23; for MC 903-induced skin inflammation: topical 1 nmole/cm^2, 8 days co-treatment with MC 903
Description: To investigate the CpdX anti-inflammatory activity in vivo, Balb/C mouse ears were topically treated with calcipotriol (MC 903, a vitamin D3 analogue), in order to induce an atopic dermatitis (AD)-like inflammation (Li et al., 2006. Proc Natl Acad Sci USA. 103(31):11736-41).
Mice were treated for 14 days with MC 903, and then for 8 extra days (until D22) with either MC 903 alone (control), MC 903 and Dex, MC 903 and CpdX, MC 903 and CpdX(eA), MC 903 and CpdX(eB), MC 903 and CpdX-D3, MC 903 and CpdX-D3(eA) and MC 903 and CpdX-D3(eB).
At D23, RNA transcripts were extracted from mouse ear skin samples and the transcripts of 7 cytokines (MMP13, COX2, IL-1β, IL-6, IL-10, IL-13 and TSLP) were analyzed by q-RT-PCR. Ear skin was harvested and histological (with H&E staining) and immunohistochemical (with anti-TSLP antibodies) analyses were carried out.

adrenal glands = assay: Corticosterone synthesis and adrenal gland after three-month treatment; type: in vivo, B6 male mice; settings: three months; for cortex layers, most notably the fasciculata zone, of the adrenal glands (histology) / transcripts of Cyp11a, Cyp11b1 and HSD3β genes in adrenal glands (corticosterone synthesis pathway): s.c. 1 mg/kg daily; for transcripts of Cyp11a, Cyp11b1 and HSD3β genes in adrenal glands (corticosterone synthesis pathway): q-RT-PCR; for plasmatic corticosterone level at 10 a.m.: vs Vehicle
Description: B6 male mice (8-week-old) were daily subjected for three months to either a subcutaneous injection of vehicle (NaCl 0.9%), Dex, CpdX, CpdX(eA), CpdX(eB), CpdX-D3, CpdX-D3(eA) or CpdX-D3(eB) (1 mg/kg body weight, diluted in vehicle).
Following this long-term treatment, blood was collected at 10 a.m. and 6 p.m. by retro-orbital puncture in lithium-heparin coated vials, and the plasmatic level of corticosterone was determined. Adrenal glands were harvested and weighted. RNA transcripts were extracted and transcripts of the Cyp11a, Cyp11b1, Cyp11b2 and HSD3β genes were analyzed by q-RT-PCR. Histological analyses of the adrenal glands were also carried out.

[5] = Body weight and body composition after three-month treatment (pDEXA); type: in vivo, B6 male mice; settings: s.c. 1 mg/kg daily, 3 months, pDEXA
Description: B6 male mice (8-week-old) were daily subjected for three months to a subcutaneous injection of either vehicle (NaCl 0.9%), Dex, CpdX or CpdX-D3 (1 mg/kg body weight, diluted in vehicle. A pDEXA machine was used to determine the lean mass and fat mass. The statistical significance was calculated through Krustal-Walis test followed by a Dunn's multiple comparison test, *p<0.05; **p<0.01; ***p<0.001.

Structure (SMILES) | epidermal thickness (morphometric analyses) [1] | clinical signs of allergic conjunctivitis (conjunctival hyperemia, lid edema and tearing) [2] | lipid deposition in the liver (5% red oil staining) (liver) | TPA-induced ear skin inflammation, histological analysis [3] | expression of TSLP in TPA-treated mouse epidermis (immunochemistry) [3] | TPA-induced transcription of pro-inflammatory genes (CCL4, COX2, MMP13, IL-1β, IL-6, TNF-α, TSLP, IL-22, IL-23) [3] | TPA-induced skin inflammation [3] | MC 903-induced ear skin inflammation, histological analysis [4] | expression of the TSLP lymphokine in MC 903-treated mouse epidermis (immunohistochemistry) [4] | MC 903-induced transcription of pro-inflammatory genes (MMP13, COX2, IL-1β, IL-6, IL-10, IL-13 and TSLP) [4] | MC 903-induced skin inflammation [4] | cortex layers, most notably the fasciculata zone, of the adrenal glands (histology) (adrenal glands) | transcripts of Cyp11a, Cyp11b1 and HSD3β genes in adrenal glands (corticosterone synthesis pathway) (adrenal glands) | plasmatic corticosterone level at 10 a.m. (adrenal glands) | fat mass / fat percentage, change from baseline [5] | lean mass / lean percentage, change from baseline [5]
COc1ccc(F)cc1C(C)(C)CC(O)(CNc1ccc2c(c1)COC2=O)C(F)(F)F (racemic) [CpdX, 5-[4-(5-fluoro-2-methoxyphenyl)-2-hydroxy-4-methyl-2-(trifluoromethyl)pentylamino]-isobenzofuran-1(3H)-one] | not significantly decreased | considerably reduced | not observed | significantly decreased | similarly strongly decreased | repressed, as efficiently as Dex | significantly decreased | decreased | similarly strongly decreased | repressed, as efficiently as Dex | significantly decreased | markedly increased | increased | much higher | commensurate increase | commensurate increase
[2H]C([2H])([2H])Oc1ccc(F)cc1C(C)(C)CC(O)(CNc1ccc2c(c1)COC2=O)C(F)(F)F (racemic) [CpdX-D3, 5-{4-[2-(methoxy-D3)-5-fluorophenyl]-2-hydroxy-4-methyl-2-(trifluoromethyl)pentylamino}isobenzofuran-1(3H)-one] | not significantly decreased | considerably reduced | not observed | significantly decreased | similarly strongly decreased | repressed, as efficiently as Dex | significantly decreased | decreased | similarly strongly decreased | repressed, as efficiently as Dex | significantly decreased | markedly increased | increased | much higher | commensurate increase | commensurate increase
COc1ccc(F)cc1C(C)(C)CC(O)(CNc1ccc2c(c1)COC2=O)C(F)(F)F (single isomer, unassigned; enantiomer a) [CpdX(eA), 5-[4-(5-fluoro-2-methoxyphenyl)-2-hydroxy-4-methyl-2-(trifluoromethyl)-pentylamino]isobenzofuran-1(3H)-one enantiomer A] | not significantly decreased | considerably reduced |  |  |  |  |  |  |  |  |  | markedly increased | increased | much higher |  | 
[2H]C([2H])([2H])Oc1ccc(F)cc1C(C)(C)CC(O)(CNc1ccc2c(c1)COC2=O)C(F)(F)F (single isomer, unassigned; enantiomer a) [CpdX-D3(eA), 5-{4-[2-(methoxy-D3)-5-fluorophenyl]-2-hydroxy-4-methyl-2-(trifluoromethyl)pentylamino}isobenzofuran-1(3H)-one enantiomer A] | not significantly decreased | considerably reduced |  |  |  |  |  |  |  |  |  | markedly increased | increased | much higher |  | 
